Experimental data published in patent US10596095B2, “Method for moisturizing skin using P-113 peptide” (PACGEN LIFE SCIENCE CORPORATION, priority 2015, dated 2020).

Key:
[1] = Moisture retention rate in Conway's dish at defined relative humidity; assay type: physicochemical; conditions: relative humidity 32%; 30° C., 24 hours; reference set as 100%; FIG. 4
Procedure: In addition, the moisture retention and water absorption of P-113 peptide were determined by dissolving magnesium chloride (MgCl2) and potassium chloride (KCl), two types of salts, in water, preparing supersaturated solutions based on the solubility of these two types of salt respectively, separately placing in sealed bottles to create a relative humidity of 32% and 84% respectively, then using P-113 peptide and hyaluronic acid for comparison test.
0.1 g of P-113 peptide and hyaluronic acid powder were weighed and placed in the internal chamber of a Conway's dish, then 0.1 ml of deionized water was added, saturated solutions were then added in the external chamber, sealed with the Conway's dish lid and placed in the oven at 30° C. for 24 hours, then samples were removed and weighed.
Moisture retention at different humidity levels was calculated according to the following formula: Moisture retention rate (%)=[1−((Wt−W0)/W0)]×100%
(§1) wherein W0: the weight (g) of the initial sample, and Wt: the weight (g) of the sample removed after 24 hours.

[2] = Moisture absorption rate in Conway's dish at defined relative humidity; assay type: physicochemical; conditions: relative humidity 32%; 30° C., 24 hours; relative to hyaluronic acid at RH 32% set as 100%; FIG. 3
Procedure: The moisture absorption of the P-113 peptide was determined by dissolving magnesium chloride (MgCl2) and potassium chloride (KCl), two types of salts, in water, preparing supersaturated solutions based on the respective solubility of these two types of salts, placing the solutions in sealed bottles to create a relative humidity of 32% and 84%, respectively, then taking P-113 peptide and hyaluronic acid for comparison test. The hyaluronic molecule of hyaluronic acid could carry up to 500 folds of water. The hyaluronic acid is currently recognized as the best moisturizing ingredient, and widely used in cosmetics and skincare products.
0.1 g of P-113 peptide and hyaluronic acid powder were weighed and placed in the internal chamber of a Conway's dish, saturated solutions were added in the external chamber, oil was applied on the rim of the Conway's dish lid to seal it completely, placed in an oven at 30° C. for 24 hours, then samples were removed and weighed.
Moisture absorption rate under different humidity was calculated by the following formula: Moisture absorption rate (%)=[(Wt−W0)/W0]×100%
as §1

[3] = test system: cells; assay: Cytotoxicity test: MTT assay of cell survival rate; assay type: cell-based; conditions: 0, 20, 100 and 200 μg/ml; treated 2 hours; FIG. 2
Procedure: The cytotoxicity test was performed with Methylthiazol tetrazolium bromide (MTT) assay to test the cell survival rate. The principle was that MTT is a water-soluble yellow dye, after reacting with cells it was reduced by the NADPH in the cells to become an insoluble dark blue crystal, then the blue crystal was dissolved with dimethyl sulfoxide (DMSO), the absorbance value was analyzed, the stronger the cell activity, the darker the blue, and when the cell was dead, it became yellow.
In the present invention, from low to high concentration (0, 20, 100 and 200 μg/ml) of P-113 peptide and the MI preservative were used to treat the cells for 2 hours, then the MTT solution was added for reaction, a spectrophotometer at the wavelength of 595 nm was used to analyze the cell survival rate, and the harmful toxic effect of the cosmetic raw material on the cells was determined.

| moisture retention rate [1] | moisture absorption rate [2] | Molecule | cell survival rate (MTT) [3] |
| --- | --- | --- | --- |
| 100% | 100% | hyaluronic acid |  |
|  |  | Cn1sccc1=O [MI, Methylisothiazolinone] | decreased the cell survival rate |
